# Assay results reported in patent US7407982B2, “Oligo or polyalkylene glycol-coupled thrombin inhibitors” (HaemoSys GmbH, priority 2001, dated 2008).
# pKi: −log10 of the molar value.
# Key:
# human α-thrombin = target: T1, human α-thrombin (Homo sapiens, UniProt P00734); test: Determination of Ki for thrombin inhibition (chromogenic or fluorogenic substrate, Dixon); type: biochemical
# T1 construct: 50 μl human α-thrombin (Kordia); purchased Kordia
# Procedure: The Ki values are the average values of at least three calculations.
# For determining the thrombin inhibiting effect of all reversibly binding inhibitors and inhibitor conjugates with inhibiting constants smaller than 1 nM, a fluorescence spectrometer (LS50B from the company Perkin Elmer) was used. […] The Ki values are the average values of at least three calculations.
# trypsin = target: T2, trypsin (Bos taurus, UniProt P00760); test: Ki values for trypsin, determined analogously; type: biochemical; details: Table I, formula (II) compounds
# T2 sequence (P00760 24-246): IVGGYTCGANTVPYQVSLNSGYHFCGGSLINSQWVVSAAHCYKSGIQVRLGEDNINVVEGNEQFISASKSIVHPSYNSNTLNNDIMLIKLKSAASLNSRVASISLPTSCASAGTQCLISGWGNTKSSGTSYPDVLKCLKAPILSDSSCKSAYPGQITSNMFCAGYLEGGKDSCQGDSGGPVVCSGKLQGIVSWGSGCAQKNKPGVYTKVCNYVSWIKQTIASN
# Procedure: The Ki values for trypsin were determined analogously.
# For optimizing the inhibitor conjugates, in particular of the following Examples 1 and 2, suitable groups R1 were sought which allow as strong a thrombin inhibition as possible. For examining the selectivity of the compounds, the inhibiting constants for trypsin were determined as well. The higher the quotient [KiTrypsin/KiThrombin], the more selectively the compound functions as a thrombin inhibitor. In order to facilitate the synthesis, this optimization was first carried out without coupling a polyalkylene glycol group to inhibitor molecules of formula (II) as listed in Table I. These compounds, which are active as thrombin inhibitors themselves, can be used as synthetic intermediates for the inhibitor conjugates of formula (I). As a central component, a glycyl-prolyl-dipeptide was consistently incorporated into the inhibitors.
# [1] = Table I, formula (II) compounds
# [2] = Table 2, formula (III) compounds
pKi (human α-thrombin; [1]),"Ki Trypsin/Ki Thrombin (human α-thrombin; Table I, selectivity quotient)",pKi (trypsin),pKi (human α-thrombin; [2]),"Ki Trypsin/Ki Thrombin (human α-thrombin; Table 2, selectivity quotient)",Compound
7.90,0.87,–,–,–,N=C(N)c1ccc(CNC(=O)[C@@H]2CCCN2C(=O)CNS(=O)(=O)c2cccc(Cl)c2Cl)cc1 [compound 17]
7.87,2.5,–,–,–,Cc1cc(C)c(C)c(S(=O)(=O)NCC(=O)N2CCC[C@H]2C(=O)NCc2ccc(C(=N)N)cc2)c1C [compound 18]
7.87,0.67,8.04,–,–,CC(C)c1cc(C(C)C)c(S(=O)(=O)NCC(=O)N2CCC[C@H]2C(=O)NCc2ccc(C(=N)N)cc2)c(C(C)C)c1 [compound 19]
7.87,0.22,8.51,–,–,N=C(N)c1ccc(CNC(=O)[C@@H]2CCCN2C(=O)CNS(=O)(=O)CC2CCCCC2)cc1 [compound 20]
7.82,1.2,–,–,–,N=C(N)c1ccc(CNC(=O)[C@@H]2CCCN2C(=O)CNS(=O)(=O)c2ccc(Cl)cc2Cl)cc1 [compound 21]
7.79,0.88,–,–,–,Cc1ccc(S(=O)(=O)NCC(=O)N2CCC[C@H]2C(=O)NCc2ccc(C(=N)N)cc2)cc1 [compound 22]
7.79,0.71,–,–,–,N=C(N)c1ccc(CNC(=O)[C@@H]2CCCN2C(=O)CNS(=O)(=O)c2ccc(Cl)c(Cl)c2Cl)cc1 [compound 23]
7.78,0.80,–,–,–,Cc1cc(C)c(S(=O)(=O)NCC(=O)N2CCC[C@H]2C(=O)NCc2ccc(C(=N)N)cc2)c(C)c1 [compound 24]
7.77,1.1,–,–,–,Cc1cc(Cl)cc(Cl)c1S(=O)(=O)NCC(=O)N1CCC[C@H]1C(=O)NCc1ccc(C(=N)N)cc1 [compound 25]
7.72,2.6,–,–,–,CCc1ccc(S(=O)(=O)NCC(=O)N2CCC[C@H]2C(=O)NCc2ccc(C(=N)N)cc2)cc1 [compound 26]
7.71,0.98,–,–,–,N=C(N)c1ccc(CNC(=O)[C@@H]2CCCN2C(=O)CNS(=O)(=O)c2ccccc2Cl)cc1 [compound 27]
7.52,1.2,7.43,–,–,Cc1c(C)c(S(=O)(=O)NCC(=O)N2CCC[C@H]2C(=O)NCc2ccc(C(=N)N)cc2)c(C)c2c1OC(C)(C)C2 [compound 28]
7.49,0.32,–,–,–,CC(C)(C)c1ccc(S(=O)(=O)NCC(=O)N2CCC[C@H]2C(=O)NCc2ccc(C(=N)N)cc2)cc1 [compound 29]
7.42,0.42,–,–,–,N=C(N)c1ccc(CNC(=O)[C@@H]2CCCN2C(=O)CNS(=O)(=O)c2cccc([N+](=O)[O-])c2)cc1 [compound 30]
7.38,0.39,7.78,–,–,N=C(N)c1ccc(CNC(=O)[C@@H]2CCCN2C(=O)CNS(=O)(=O)CCc2ccccc2)cc1 [compound 31]
7.35,0.05,–,–,–,N=C(N)c1ccc(CNC(=O)[C@@H]2CCCN2C(=O)CNS(=O)(=O)/C=C/c2ccccc2)cc1 [compound 32]
7.12,0.33,–,–,–,N#Cc1ccc(S(=O)(=O)NCC(=O)N2CCC[C@H]2C(=O)NCc2ccc(C(=N)N)cc2)cc1 [compound 34]
6.94,0.11,–,–,–,N=C(N)c1ccc(CNC(=O)[C@@H]2CCCN2C(=O)CNS(=O)(=O)c2ccc([N+](=O)[O-])cc2)cc1 [compound 35]
–,–,–,8.60,10.9,N=C(N)c1ccc(CNC(=O)C2CCCN2C(=O)C(CO)NS(=O)(=O)c2ccc3ccccc3c2)cc1 (stereo not shown) [compound 38]
–,–,–,8.47,11,N=C(N)c1ccc(CNC(=O)C2CCCN2C(=O)C(CC(N)=O)NS(=O)(=O)c2ccc3ccccc3c2)cc1 (stereo not shown) [compound 39]
–,–,–,8.42,4.2,N=C(N)c1ccc(CNC(=O)C2CCCN2C(=O)C(CCC(N)=O)NS(=O)(=O)c2ccc3ccccc3c2)cc1 (stereo not shown) [compound 40]
–,–,–,7.62,2.9,N=C(N)c1ccc(CNC(=O)C2CCCN2C(=O)C(CC(=O)O)NS(=O)(=O)c2ccc3ccccc3c2)cc1 (stereo not shown) [compound 42]
–,–,–,10.21,1163,COc1ccc(S(=O)(=O)NC(CC(=O)NCc2cccc(C#N)c2)C(=O)N2CCCC2C(=O)NCc2ccc(C(=N)N)cc2)cc1 (stereo not shown) [compound 46]
–,–,–,8.80,48,COc1ccc(S(=O)(=O)N[C@@H](CC(=O)O)C(=O)N2CCC[C@H]2C(=O)NCc2ccc(C(=N)N)cc2)cc1 [compound 55]
